Tests used:
[1] = target: benzodiazepine binding site on GABAA receptors; assay: In vitro inhibition of 3H-flunitrazepam (3H-FNM) binding; parameters: species or system rat; details: cerebral cortex membranes from male Wistar rats; 3H-FNM 1 nM; 40 min at 2° C.
Description: In Vitro Inhibition of […] (3H-FNM) Binding
The GABA recognition site and the benzodiazepine modulatory unit can selectively be labelled with ^3H-flunitrazepam.
Preparations are performed at 0-4° C. unless otherwise indicated. Cerebral cortex from male Wistar rats (150-200 g) is homogenised for 5-10 sec in 20 ml Tris-HCl (30 mM, pH 7.4) using an Ultra-Turrax homogeniser. The suspension is centrifuged at 27,000×g for 15 min and the pellet is washed three times with buffer (centrifuged at 27,000×g for 10 min). The washed pellet is homogenized in 20 ml of buffer and incubated on a water bath (37° C.) for 30 min to remove endogenous GABA and then centrifuged for 10 min at 27,000×g. The pellet is then homogenized in buffer and centrifuged for 10 min at 27,000×g. The final pellet is resuspended in 30 ml buffer and the preparation is frozen and stored at −20° C.
The membrane preparation is thawed and centrifuged at 2° C. for 10 min at 27,000×g. The pellet is washed twice with 20 ml 50 mM Tris-citrate, pH 7.1 using an Ultra-Turrax homogeniser and centrifuged for 10 min at 27,000×g. The final pellet is resuspended in 50 mM Tris-citrate, pH 7.1 (500 ml buffer per g of original tissue), and then used for binding assays. Aliquots of 0.5 ml tissue are added to 25 μl of test solution and 25 μl of ^3H-FNM (1 nM, final concentration), mixed and incubated for 40 min at 2° C. Non-specific binding is determined using Clonazepam (1 μM, final concentration). After incubation the samples are added 5 ml of ice-cold buffer and poured directly onto Whatman GF/C glass fibre filters under suction and immediately washed with 5 ml ice-cold buffer. The amount of radioactivity on the filters is determined by conventional liquid scintillation counting. Specific binding is total binding minus non-specific binding.
25-75% inhibition of specific binding must be obtained, before calculation of an IC50.
The test value will be given as IC50 (the concentration (μM) of the test substance which inhibits the specific binding of ^3H-FNM by 50%).
Co is specific binding in control assays, and […]

Row | SMILES | IC50 [1] | melting point
1 | O=C(c1cn(-c2cccc(-c3ccccc3)c2)cn1)n1cccn1 [Compound 178, (1-Biphenyl-3-yl-1H-imidazol-4-yl)-pyrazol-1-yl-methanone] | 5.9 nM | 124 to 127 °C
2 | COc1ccc(F)cc1-c1cccc(-n2cnc(C(=O)c3ccccn3)c2)c1 [Compound 14, [1-(5′-Fluoro-2′-methoxy-biphenyl-3-yl)-1H-imidazol-4-yl]-pyridin-2-yl-methanone] | 2.7 nM | –
3 | O=C(c1ccccc1)c1cn(-c2cccc(-c3ccccc3)c2)cn1 [Compound 8, (1-Biphenyl-3-yl-1H-imidazol-4-yl)-phenyl-methanone] | 36 nM | –

Source: patent publication US8030339B2, “Imidazole derivatives for the treatment of anxiety and related diseases” (Neurosearch A/S, priority 2005, dated 2011)
